Results on two compounds are retold here after patent publication US5215889A, “Catalytic and reactive polypeptides and methods for their preparation and use” (The Regents of the University of California, priority 1989, dated 1993).

Test [1] relates to MOPC315 Fv variant Fv(Y34FL), Tyr 34L to Phe. Kind of test: Hydrolysis of DNP coumarin esters 1-3 by Fv. In kind it is biochemical, murine. The note with it: pH 6.8. As to the method: (§1) FIG. 22 is a Lineweaver-Burke plot of initial rate data obtained for the hydrolysis of 1 as described in Example 6 of the Experimental section herein. Four μl of a 100-fold concentrated solution of substrate 1 in DMSO was added to the 400 μl of Fv (115 nM) in buffer A while monitoring 7-hydroxycoumarin fluorescence at 25° C. (excitation:355nm; emission: 457 nm). A standard of 7-hydroxycoumarin was added at the completion of each assay to assess quenching of coumarin fluorescence by DNP at high substrate concentrations. The buffer background rate was subtracted from the initial rates. Each point represents the average velocity of at least duplicate experiments. Factor X, Factor Xa, or Russell's viper venom had no hydrolytic activity towards 1.
(§2) The ability of wild type and mutant Fvs to hydrolyze esters 1-3 was assayed by measuring the rate of coumarin release fluorimetrically at pH 6.8 (Pollack et al. (1988) supra; Pollack (1989) supra). […] Under these conditions, Fv(Y34HL) turns over at least 11 times and still retains 44% of its activity. The loss of activity is likely due to the accumulation of the inhibitory reaction product 8. […] Ester 2 was a poor substrate (kcat (2)=0.015 min^-1); and the hydrolysis of 3 was not accelerated (kcat (3)<0.005 min^-1). […] The initial rate of hydrolysis of 1 by Fv(Y34HL) at pH 6.8 is approximately 45-fold faster than the reaction with either […] (Table 2). At pH 8.7, the reactivity of Fv(Y34HL) and Fv(315) both increase, but differentially (v[Fv(Y34HL ]/v[Fv(315)]=3.3, at 10 μM 1). Under these conditions Fv(Y34HL) catalytically hydrolyzes 1 while Fv(315) reacts stoichiometrically. The increased reactivity of Fv(315) at higher pH may be due to deprotonation of the tyrosine hydroxyl and subsequent transesterification to form a relatively stable phenol ester.

Test [2] has as its target T1, MOPC315 Fv variant Fv(Y34HL), Tyr 34L to His (Mus musculus, UniProt P01729+P01822, Y53H).
T1 construct: Antibody-derived VH was prepared by denaturing ion exchange chromatography of authentic MOPC315 Fv, obtained from pepsin digestion of purified IgA; lambda cII fusion with Factor Xa site (IleGluGlyArg) (N, cleaved yes); made in house; host or cells: VL: E. coli MZ1 (cII fusion, inclusion bodies); VH: pepsin-cleaved MOPC315 IgA from mouse ascites
Kind of test: Hydrolysis of DNP coumarin esters 1-3 by Fv. The format is biochemical, murine. The method, then:
as §1, §2

Test [3] has as its target T2, MOPC315 Fv, wild type, Fv(315) (Mus musculus, UniProt P01729+P01822).
T2 construct: The Fv fragment (26 kD) is a heterodimer consisting of two peptides, VH (14 kD) and VL (12 kD); made in house; host or cells: MOPC315 myeloma ascites (Balb/c mice), IgA cleaved with pepsin
The test can be described thus: Hydrolysis of DNP coumarin esters 1-3 by Fv. In kind it is biochemical, murine. The settings on record: pH 6.8. The method, then:
as §1, §2

The target of test [4] is MOPC315 Fv variant Fv(Y34FL), Tyr 34L to Phe. Kind of test: Fv fluorescence titration with DNP-L-lysine. In kind it is binding, murine. The note with it: pH 6.8; ±SE. As to the method: (§3) FIG. 21 is a plot of Fv fluorescence titration with DNP-L-lysine as described in Example 6 of the Experimental section herein. Fv(315)(·),Fv(Y34FL)(Δ), or Fv(Y34HL)(o)(400 μl, 450-500 nM, ε280 nm=37,500 M^-1) in 100 mM potassium phosphate, pH 6.8 (buffer A), was titrated with solutions of 10-100 μM DNP-L-lysine (ε360 nm =17,500 M^-1) in buffer A while monitoring the protein fluorescence (excitation: 282 nm; emission: 343 nm). Fluorescence was corrected for the change in volume. Dissociation constants (KD) were determined by a modified Scatchard analysis.
(§4) The binding of ε-2,4-DNP-(L)-lysine (DNP Lys) by mutant wild type Fv proteins was assessed by titration of the intrinsic fluorescence of MOPC315 Fv (Hochman et al. (1973) supra; Hochman et al. (1977) supra), as shown in FIG. 21. […] DNP-aminoalkyl carboxylic acids of different lengths 6-9 (FIG. 16) were used to probe the location of the positively charged imidazole ring with respect to the DNP site in Fv(Y34HL) at pH 6.0.

Test [5] addresses MOPC315 Fv variant Fv(Y34HL), Tyr 34L to His. Kind of test: Fv fluorescence titration with DNP-L-lysine. In kind it is binding, murine. The settings on record: pH 6.8; ±SE. As to the method:
as §3, §4

Test [6] has as its target T2, MOPC315 Fv, wild type, Fv(315). The test can be described thus: Fv fluorescence titration with DNP-L-lysine. The format is binding, murine. The note with it: pH 6.8; ±SE. The method, then:
as §3, §4

T1 sequence (P01729 with tags, fused parts or gaps Y53H): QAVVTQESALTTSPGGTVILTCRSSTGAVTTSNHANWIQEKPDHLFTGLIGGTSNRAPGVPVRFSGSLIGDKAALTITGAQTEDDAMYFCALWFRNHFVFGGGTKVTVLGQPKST
T1 sequence (P01822 19-137): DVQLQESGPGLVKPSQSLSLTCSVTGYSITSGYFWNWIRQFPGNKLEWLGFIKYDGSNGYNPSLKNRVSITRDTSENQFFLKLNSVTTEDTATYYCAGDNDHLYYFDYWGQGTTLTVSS
T2 sequence (P01822 19-137): as above
T2 sequence (P01729 20-129): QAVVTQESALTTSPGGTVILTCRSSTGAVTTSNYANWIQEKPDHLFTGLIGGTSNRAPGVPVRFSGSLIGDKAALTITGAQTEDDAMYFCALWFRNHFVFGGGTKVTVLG

Consider `O=C(CCCCNc1ccc([N+](=O)[O-])cc1[N+](=O)[O-])Oc1ccc2ccc(=O)oc2c1` [compound 1, 7-hydroxycoumarin ester of 5-(2,4-dinitrophenyl)-aminopentanoic acid], for which, in test [1], the “kcat (Table 2, Fv(Y34FL))” value is 0.004 min. Also, the “kcat (Table 2, Fv(Y34HL))” value in test [2] (pH 6.8, SE (n = 3)) is recorded as 0.18 ± .03 min. Moreover, in test [3], the “kcat (Table 2, Fv(315))” value is listed as 0.004 min.
In turn, `N[C@@H](CCCCNc1ccc([N+](=O)[O-])cc1[N+](=O)[O-])C(=O)O` [DNP-L-lysine, ε-2,4-DNP-(L)-lysine] displayed a Ki in test [2] of 3800 ± 1500 nM. Moreover, the Kd in test [4] was 270 ± 30 nM; in test [5] it was 1400 ± 300 nM; in test [6], 270 ± 30 nM.
